Consider two compounds from patent publication US20170215470A1, “USE OF A COMPOSITION CONTAINING A LONG-CHAIN POLYOL AS A BASE FOR E-LIQUIDS” (LABORATOIRES CERES, priority 2014, published 2017).

A short description of the series: Thermal stability by thermogravimetric (TGA) and thermal differential analysis (TDA). The class given is physicochemical. As for the experimental part:
The thermogravimetric analysis is a method of thermal analysis in which the changes of the physical and chemical properties of the materials are measured as a function of the temperature. The TGA can supply information about the physical phenomena such as the vaporization or the combustion. Also, it is possible to obtain information about the chemical phenomena such as the dehydration or the decomposition. In the thermal differential analysis (TDA) the study material and an inert reference undergo identical thermic cycles. During the analysis the temperature difference between the sample and the reference is recorded. These temperature differences followed as a function of the rime relative to the inert reference inform us about the thermal phenomena undergone by the sample, whether exothermic or endothermic. […] The endothermic character is associated with a change of state of the compound (ex. vaporization) whereas the exothermic character is induced by reactions of decomposition or by intra- and intermolecular chemical reactions. The thermogravimetric analyzer […] of TA INSTRUMENT was used to conjointly determine the vaporization temperatures of the products, the enthalpy values and the rate of products not vaporized at 350° C. The analysis conditions are as follows: test size: 50 mg open crucible under flow of air: 100 ml/min rate of heating: 10° C./min temperature range: 25 to 350° C. (temperature conditions representative of a normal use as well as of misuse of an electronic cigarette). The apparatus is cleaned between each analysis by being heated to 600° C. under a flow of air in order to eliminate any trace of non-vaporized residue deposited on the crucible, the balance arms or the kiln walls.

Read-outs that look alike come from different tables or passages of the source.

With `CC(O)CCO` (stereo not shown) [1,3-butane diol], the “TDA vaporization temperature (° C.) (1)” value (endothermic peak, 50 mg, air 100 ml/min, 10° C./min, 25 to 350° C.) stood at 171 °C. Further, the “TDA transformation temperature (° C.) (2)” value (exothermic peak (reaction and/or decomposition), 50 mg, air 100 ml/min, 10° C./min) is reported as “without any thermal decomposition”.
Consider `CN1CCCC1c1cccnc1` (stereo not shown) [Nicotine], for which the “TDA vaporization temperature (° C.) (1)” value came to 190 °C and the “TGA non-evaporated residue at 250° C. (%)” value came out at 1.08%.
